According to patent EP0214303A1, “DISULFIDE COMPOUNDS AND ANTINEOPLASTIC AGENTS” (priority 1985, dated 1986):

Key:
peripheral leukocytes = test: Effect on the peripheral leucocytes number (WBC4000); type: in vivo, ddY mice; conditions: statement in words on Table 2 (image); comparison with control compounds A, B, C, D where stated; intraperitoneal, 4 days after administration
Procedure: (4) Effect on the peripheral leucocytes number: • Sarcoma 180 solid tumor cells […] were subcutaneously implanted into the right axilla of each mouse (body weight 20 ±2 g) of a group consisting of 5 male mice (ddY strain). 24 hours after implantation, a test compound was intraperitoneally administered to each animal. 4 days after the administration, blood (each 0.02 ml) was collected from the suborbital plexus vein of each tumor-carrying animal. The collected sample of blood was dispersed in 9.98 ml of Cell-Kit Seven solution. One drop of saponin solution was added to the sample to dissolve erythrocytes and then a microcell counter was used to count the number of leucocytes. On graph paper, the number of leucocytes was indicated by an arithmetic scale on the longitudinal axis and the dose of the test compound was indicated by a logarithmic scale on the lateral axis. The relationship between the number of peripheral leucocytes and the dose of the test compound was plotted and the dose (i.e., WBC4000) corresponding to 4000 peripheral leucocytes/mm3 (about half the number of leucocytes of normal mice) was obtained.

[1] = pH 7

CO[C@@]12[C@H](COC(N)=O)C3=C(C(=O)C(C)=C(NCCCCSSC[C@H](N)C(=O)NCC(=O)O)C3=O)N1C[C@@H]1N[C@@H]12 [Compound 27]
solubility: > 39 mg/mL

COC12C(COC(N)=O)C3=C(C(=O)C(C)=C(NCCCCCCSSCCCCCCNC4=C(C)C(=O)C5=C(C4=O)C(COC(N)=O)C4(OC)C6NC6CN54)C3=O)N1CC1NC12 (stereo not drawn) [Compound 8, 7-N,7'-N'-(dithiodihexamethylene) dimitomycin C]
WBC4000 (dosage reducing the peripheral leukocytes to 4000/mm3) (peripheral leukocytes): considerably increased

COC12C(COC(N)=O)C3=C(C(=O)C(C)=C(NCCCCCCCCSSCCCCCCCCNC4=C(C)C(=O)C5=C(C4=O)C(COC(N)=O)C4(OC)C6NC6CN54)C3=O)N1CC1NC12 (stereo not drawn) [Compound 10, 7-N,7'-N'-(dithiodioctamethylene) dimitomycin C]
solubility (result in words) [1]: scarcely soluble in water

COC12C(COC(N)=O)C3=C(C(=O)C(C)=C(NCCCCSSCCCCNC4=C(C)C(=O)C5=C(C4=O)C(COC(N)=O)C4(OC)C6NC6CN54)C3=O)N1CC1NC12 (stereo not drawn) [Compound 4, 7-N,7'-N'-(dithioditetramethylene) dimitomycin C]
WBC4000 (dosage reducing the peripheral leukocytes to 4000/mm3) (peripheral leukocytes): considerably increased

COC12C(COC(N)=O)C3=C(C(=O)C(C)=C(NCCCCSSCC(O)CO)C3=O)N1CC1NC12 (stereo not drawn) [Compound 26, 7-N-[4-(2,3-dihydroxypropyldithio)butyl] mitomycin C]
WBC4000 (dosage reducing the peripheral leukocytes to 4000/mm3) (peripheral leukocytes): considerably increased

COC12C(COC(N)=O)C3=C(C(=O)C(C)=C(NCCCSSCCCNC4=C(C)C(=O)C5=C(C4=O)C(COC(N)=O)C4(OC)C6NC6CN54)C3=O)N1CC1NC12 (stereo not drawn) [Compound 1, 7-N,7'-N'-(dithioditrimethylene) dimitomycin C]
WBC4000 (dosage reducing the peripheral leukocytes to 4000/mm3) (peripheral leukocytes): considerably increased
